The source of these data is ChEMBL document CHEMBL3994575, “Helixconstraints and amino acid substitution in GLP-1 increase cAMP and insulin secretion but not beta-arrestin 2 signaling” (Eur J Med Chem, 2017).

Positions of bridges follow the written chain, without caps; N, C: chain ends. Residues, ends and D or L forms follow the SMILES beside them.

For assay [1], the target named is T1, Glucagon-like peptide 1 receptor (Homo sapiens, UniProt P43220). The experiment in a line: Agonist activity at human GLP1R expressed in CHOK1 cells assessed as induction of beta-galactosidase-tagged beta-arrestin2 recruitment incubated for 90 mins by PathHunter enzyme complementation assay. The format is cell-based. On the technique in general: Arrestin recruitment assays detect the binding of arrestin to an activated receptor.

In assay [2] the target is T1, Glucagon-like peptide 1 receptor. The assay can be described thus: Agonist activity at human GLP1R expressed in CHO cells assessed as cAMP accumulation incubated for 30 mins by LANCE assay. The format is functional, cell-based.
Assay [3] has the same target. The assay can be described thus: Displacement of [125I]-GLP (7 to 36 residues) from human GLP1R expressed in CHO cell membranes incubated for 30 mins measured after 10 hrs by scintillation proximity assay. (In a radioligand displacement assay an active substance lowers the binding of a labelled ligand.)

T1 sequence (P43220 whole entry): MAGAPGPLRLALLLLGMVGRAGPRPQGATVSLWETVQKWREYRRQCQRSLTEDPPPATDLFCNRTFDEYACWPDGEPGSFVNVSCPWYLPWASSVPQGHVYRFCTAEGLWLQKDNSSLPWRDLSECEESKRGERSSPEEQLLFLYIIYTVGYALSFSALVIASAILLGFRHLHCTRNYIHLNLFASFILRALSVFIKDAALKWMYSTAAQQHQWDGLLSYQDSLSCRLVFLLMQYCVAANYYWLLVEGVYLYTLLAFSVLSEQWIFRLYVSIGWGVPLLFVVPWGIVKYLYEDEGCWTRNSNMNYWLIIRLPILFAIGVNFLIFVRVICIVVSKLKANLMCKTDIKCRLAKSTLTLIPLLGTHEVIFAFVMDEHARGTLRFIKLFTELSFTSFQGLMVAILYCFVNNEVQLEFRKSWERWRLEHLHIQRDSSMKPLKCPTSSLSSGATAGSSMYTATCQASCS

What is called EC50 is the concentration giving half of the maximal effect. As to `CC[C@H](C)[C@H](NC(=O)[C@H](Cc1ccccc1)NC(=O)[C@H](CCC(=O)O)NC(=O)[C@H](CCCCN)NC(=O)[C@H](C)NC(=O)[C@H](C)NC(=O)[C@H](CCC(N)=O)NC(=O)CNC(=O)[C@H](CCC(=O)O)NC(=O)[C@H](CC(C)C)NC(=O)[C@H](Cc1ccc(O)cc1)NC(=O)[C@H](CO)NC(=O)[C@H](CO)NC(=O)[C@@H](NC(=O)[C@H](CC(=O)O)NC(=O)[C@H](CO)NC(=O)[C@@H](NC(=O)[C@H](Cc1ccccc1)NC(=O)[C@@H](NC(=O)CNC(=O)[C@@H]1CSCC(=O)N[C@@H](Cc2cnc[nH]2)C(=O)N[C@@H](C)C(=O)N1)[C@@H](C)O)[C@@H](C)O)C(C)C)C(=O)N[C@@H](C)C(=O)N[C@@H](Cc1c[nH]c2ccccc12)C(=O)N[C@@H](CC(C)C)C(=O)N[C@H](C(=O)N[C@@H](CCCCN)C(=O)NCC(=O)N[C@@H](CCCNC(=N)N)C(=O)NCC(N)=O)C(C)C`, the EC50 in assay [1] is over 10000 nM; in assay [2], 300 nM.
Broadly, the Ki is the dissociation constant of the complex between target and ligand, obtained from inhibition or displacement. For the compound `CC[C@H](C)[C@H](NC(=O)[C@H](Cc1ccccc1)NC(=O)[C@H](CCC(=O)O)NC(=O)[C@H](CCCCN)NC(=O)[C@H](C)NC(=O)[C@H](C)NC(=O)[C@H](CCC(N)=O)NC(=O)[C@@H](NC(=O)[C@H](CCC(=O)O)NC(=O)[C@H](CC(C)C)NC(=O)[C@H](Cc1ccc(O)cc1)NC(=O)[C@H](CO)NC(=O)[C@H](CO)NC(=O)[C@@H](NC(=O)[C@H](CC(=O)O)NC(=O)[C@H](CO)NC(=O)[C@@H](NC(=O)[C@H](Cc1ccccc1)NC(=O)[C@@H](NC(=O)CNC(=O)[C@H](CCC(=O)O)NC(=O)[C@H](C)NC(=O)[C@@H](N)Cc1cnc[nH]1)[C@@H](C)O)[C@@H](C)O)C(C)C)C(C)C)C(=O)N[C@H]1CCCCNC(=O)C[C@@H](C(=O)NCC(=O)N[C@@H](CCCNC(=N)N)C(=O)NCC(N)=O)NC(=O)[C@H](C(C)C)NC(=O)[C@H](CC(C)C)NC(=O)[C@H](Cc2c[nH]c3ccccc23)NC1=O` (H-HAEGTFTSDVSSYLEVQAAKEFIKWLVDGRG-NH2; lactam 24-28), the Ki in assay [3] amounted to 1.5 nM. In addition, the EC50 in assay [1] came out at 9 nM; in assay [2], 0.1 nM.
For `CC[C@H](C)[C@H](NC(=O)[C@H](Cc1ccccc1)NC(=O)[C@H](CCC(=O)O)NC(=O)[C@H](CCCCN)NC(=O)[C@H](C)NC(=O)[C@H](C)NC(=O)[C@H](CCC(N)=O)NC(=O)[C@H](C)NC(=O)[C@H](CCC(=O)O)NC(=O)[C@H](CC(C)C)NC(=O)[C@H](Cc1ccc(O)cc1)NC(=O)[C@H](CO)NC(=O)[C@H](CO)NC(=O)[C@H](Cc1ccc(O)cc1)NC(=O)[C@H](CC(=O)O)NC(=O)[C@H](CO)NC(=O)[C@@H](NC(=O)[C@H](Cc1ccccc1)NC(=O)[C@@H](NC(=O)CNC(=O)[C@H](CCC(=O)O)NC(=O)[C@H](C)NC(=O)[C@@H](N)Cc1cnc[nH]1)[C@@H](C)O)[C@@H](C)O)C(=O)N[C@H]1CCCCNC(=O)C[C@@H](C(=O)NCC(=O)N[C@@H](CCCNC(=N)N)C(=O)NCC(N)=O)NC(=O)[C@H](C(C)C)NC(=O)[C@H](CC(C)C)NC(=O)[C@H](Cc2c[nH]c3ccccc23)NC1=O` (H-HAEGTFTSDYSSYLEAQAAKEFIKWLVDGRG-NH2; lactam 24-28) the same measures were 0.47 nM, 4.6 nM and 0.011 nM.
In assay [3], `CC[C@H](C)[C@H](NC(=O)[C@H](Cc1ccccc1)NC(=O)[C@H](CCC(=O)O)NC(=O)[C@H](CCCCN)NC(=O)[C@H](C)NC(=O)[C@H](C)NC(=O)[C@H](CCC(N)=O)NC(=O)CNC(=O)[C@H](CCC(=O)O)NC(=O)[C@H](CC(C)C)NC(=O)[C@H](Cc1ccc(O)cc1)NC(=O)[C@H](CO)NC(=O)[C@H](CO)NC(=O)[C@@H](NC(=O)[C@H](CC(=O)O)NC(=O)[C@H](CO)NC(=O)[C@@H](NC(=O)[C@H](Cc1ccccc1)NC(=O)[C@@H]1CSC(=O)CN[C@@H](Cc2cnc[nH]2)C(=O)N[C@@H](C)C(=O)N[C@@H](CCC(=O)O)C(=O)NCC(=O)N1)[C@@H](C)O)C(C)C)C(=O)N[C@@H](C)C(=O)N[C@@H](Cc1c[nH]c2ccccc12)C(=O)N[C@@H](CC(C)C)C(=O)N[C@H](C(=O)N[C@@H](CCCCN)C(=O)NCC(=O)N[C@@H](CCCNC(=N)N)C(=O)NCC(N)=O)C(C)C` returned a Ki of over 50 nM. Also, the concentration for a half-maximal effect (EC50) in assay [1] and in assay [2] was over 10000 nM throughout.
As to `CC[C@H](C)[C@H](NC(=O)[C@H](Cc1ccccc1)NC(=O)[C@H](CCC(=O)O)NC(=O)[C@H](CCCCN)NC(=O)[C@H](C)NC(=O)[C@H](C)NC(=O)[C@H](CCC(N)=O)NC(=O)CNC(=O)[C@H](CCC(=O)O)NC(=O)[C@@H]1CC(=O)NCCCC[C@H](NC(=O)[C@H](CC(=O)O)NC(=O)[C@H](CO)NC(=O)[C@@H](NC(=O)[C@H](Cc2ccccc2)NC(=O)[C@@H](NC(=O)CNC(=O)[C@H](CCC(=O)O)NC(=O)[C@H](C)NC(=O)[C@@H](N)Cc2cnc[nH]2)[C@@H](C)O)[C@@H](C)O)C(=O)N[C@@H](CO)C(=O)N[C@@H](CO)C(=O)N[C@@H](Cc2ccc(O)cc2)C(=O)N1)C(=O)N[C@H]1CCCCNC(=O)C[C@@H](C(=O)NCC(=O)N[C@@H](CCCNC(=N)N)C(=O)NCC(N)=O)NC(=O)[C@H](C(C)C)NC(=O)[C@H](CC(C)C)NC(=O)[C@H](Cc2c[nH]c3ccccc23)NC1=O` (H-HAEGTFTSDKSSYDEGQAAKEFIKWLVDGRG-NH2; lactam 10-14, 24-28), the Ki in assay [3] is 1.4 nM. In addition, the results for the EC50 in assay [1] and in assay [2] were 12 nM and 0.021 nM, respectively.
As to `CC[C@H](C)[C@H](NC(=O)[C@H](Cc1ccccc1)NC(=O)[C@H](CCC(=O)O)NC(=O)[C@H](CCCCN)NC(=O)[C@H](C)NC(=O)[C@H](C)NC(=O)[C@H](CCC(N)=O)NC(=O)[C@@H]1CC(=O)NCCCC[C@H](NC(=O)[C@H](CO)NC(=O)[C@@H](NC(=O)[C@H](CC(=O)O)NC(=O)[C@H](CO)NC(=O)[C@@H](NC(=O)[C@H](Cc2ccccc2)NC(=O)[C@@H](NC(=O)CNC(=O)[C@H](CCC(=O)O)NC(=O)[C@H](C)NC(=O)[C@@H](N)Cc2cnc[nH]2)[C@@H](C)O)[C@@H](C)O)C(C)C)C(=O)N[C@@H](Cc2ccc(O)cc2)C(=O)N[C@@H](CC(C)C)C(=O)N[C@@H](CCC(=O)O)C(=O)N1)C(=O)N[C@H]1CCCCNC(=O)C[C@@H](C(=O)NCC(=O)N[C@@H](CCCNC(=N)N)C(=O)NCC(N)=O)NC(=O)[C@H](C(C)C)NC(=O)[C@H](CC(C)C)NC(=O)[C@H](Cc2c[nH]c3ccccc23)NC1=O` (H-HAEGTFTSDVSKYLEDQAAKEFIKWLVDGRG-NH2; lactam 12-16, 24-28), in assay [3], the affinity corresponds to a Ki of 0.94 nM. For the same compound, the EC50 in assay [1] is 6.7 nM; in assay [2], 0.013 nM.
`CC[C@H](C)[C@H](NC(=O)[C@H](Cc1ccccc1)NC(=O)[C@H](CCC(=O)O)NC(=O)[C@H](CCCCN)NC(=O)[C@H](C)NC(=O)[C@H](C)NC(=O)[C@H](CCC(N)=O)NC(=O)[C@H](C)NC(=O)[C@H](CCC(=O)O)NC(=O)[C@H](CC(C)C)NC(=O)[C@H](Cc1ccc(O)cc1)NC(=O)[C@H](CO)NC(=O)[C@H](CO)NC(=O)[C@@H](NC(=O)[C@H](CC(=O)O)NC(=O)[C@H](CO)NC(=O)[C@@H](NC(=O)[C@H](Cc1ccccc1)NC(=O)[C@@H](NC(=O)CNC(=O)[C@H](CCC(=O)O)NC(=O)[C@H](C)NC(=O)[C@@H](N)Cc1cnc[nH]1)[C@@H](C)O)[C@@H](C)O)C(C)C)C(=O)N[C@H]1CCCCNC(=O)C[C@@H](C(=O)NCC(=O)N[C@@H](CCCNC(=N)N)C(=O)NCC(N)=O)NC(=O)[C@H](C(C)C)NC(=O)[C@H](CC(C)C)NC(=O)[C@H](Cc2c[nH]c3ccccc23)NC1=O` (H-HAEGTFTSDVSSYLEAQAAKEFIKWLVDGRG-NH2; lactam 24-28) displayed a Ki in assay [3] of 1.7 nM. Also, the EC50 in assay [1] was determined as 11 nM; in assay [2] it was 0.02 nM.
For `CC[C@H](C)[C@H](NC(=O)[C@H](Cc1ccccc1)NC(=O)[C@H](CCC(=O)O)NC(=O)[C@H](CCCCN)NC(=O)[C@H](C)NC(=O)[C@H](C)NC(=O)[C@H](CCC(N)=O)NC(=O)[C@@H]1CCC(=O)NCCCC[C@H](NC(=O)[C@H](CO)NC(=O)[C@H](Cc2ccc(O)cc2)NC(=O)[C@H](CC(=O)O)NC(=O)[C@H](CO)NC(=O)[C@@H](NC(=O)[C@H](Cc2ccccc2)NC(=O)[C@@H](NC(=O)CNC(=O)[C@H](CCC(=O)O)NC(=O)[C@H](C)NC(=O)[C@@H](N)Cc2cnc[nH]2)[C@@H](C)O)[C@@H](C)O)C(=O)N[C@@H](Cc2ccc(O)cc2)C(=O)N[C@@H](CC(C)C)C(=O)N[C@@H](CCC(=O)O)C(=O)N1)C(=O)N[C@H]1CCCCNC(=O)C[C@@H](C(=O)NCC(=O)N[C@@H](CCCNC(=N)N)C(=O)NCC(N)=O)NC(=O)[C@H](C(C)C)NC(=O)[C@H](CC(C)C)NC(=O)[C@H](Cc2c[nH]c3ccccc23)NC1=O` (H-HAEGTFTSDYSKYLEEQAAKEFIKWLVDGRG-NH2; lactam 12-16, 24-28) the same measures were 0.82 nM, 8.8 nM and 0.009 nM.
With `CC[C@H](C)[C@H](NC(=O)[C@H](Cc1ccccc1)NC(=O)[C@H](CCC(=O)O)NC(=O)[C@H](CCCCN)NC(=O)[C@H](C)NC(=O)[C@H](C)NC(=O)[C@H](CCC(N)=O)NC(=O)[C@@H]1CCC(=O)NCCCC[C@H](NC(=O)[C@H](CO)NC(=O)[C@@H](NC(=O)[C@H](CC(=O)O)NC(=O)[C@H](CO)NC(=O)[C@@H](NC(=O)[C@H](Cc2ccccc2)NC(=O)[C@@H](NC(=O)CNC(=O)[C@H](CCC(=O)O)NC(=O)[C@H](C)NC(=O)[C@@H](N)Cc2cnc[nH]2)[C@@H](C)O)[C@@H](C)O)C(C)C)C(=O)N[C@@H](Cc2ccc(O)cc2)C(=O)N[C@@H](CC(C)C)C(=O)N[C@@H](CCC(=O)O)C(=O)N1)C(=O)N[C@H]1CCCCNC(=O)C[C@@H](C(=O)NCC(=O)N[C@@H](CCCNC(=N)N)C(=O)NCC(N)=O)NC(=O)[C@H](C(C)C)NC(=O)[C@H](CC(C)C)NC(=O)[C@H](Cc2c[nH]c3ccccc23)NC1=O` (H-HAEGTFTSDVSKYLEEQAAKEFIKWLVDGRG-NH2; lactam 12-16, 24-28), the EC50 in assay [2] was 0.05 nM.
